In patent US20110009374A1, “METHOD OF WOUND HEALING AND SCAR MODULATION” (priority 2009, published 2011):
Several values for one entry are separate records, joined by “and”; a condition that tells them apart may be missing. Equal entries are not always repeated.

Assays:
Format in all cases: in vivo
[1] = system: linear subcutaneous-deep incision wounds in hairless mice (Skh:HR-1); experiment: Example 2 wound healing in hairless mice: healing evaluation by wound width
Method: (§1) Twelve hairless mice (Skh:HR-1) with an average weight of […] were treated topically with a local anesthetic (LMX-4, Ferndale Laboratories, Inc.) for 30 minutes prior to wounding for dermal anesthesia. Antiseptics were not used because of the possibility of their local effect on the wound healing process.
(§2) The mice were subdivided into two groups, A and B. Each mouse received three linear, 10 mm long, subcutaneous-deep incision wounds parallel to the spinal column. The first incision was near the spinal column on the left side (C), one at a position 10 mm away from the first on the same side (L), and one on the right side about 10 mm from the center line or spinal column (R). All incision wounds were made with a 0.3 mm blade surgical blade. Because of the loose nature of the hairless mouse epidermis the wounds spread to as wide as 3 mm. Each mouse was housed separately.
(§3) 1) 0.25% Formulations: water (79.75%), ethanol (18%), methylprednisolone acetate or prednisolone acetate (0.25%), and ammonium acryloyldimethyltaurate/VP copolymer (2%).
(§4) 2) 1% Formulations: water (79%), ethanol (18%), methylpredinisolone acetate or prednisolone acetate (1%), and ammonium acryloyldimethyltaurate/VP copolymer (2%).
(§5) In Group A, wounds C and L were treated with the 0.25% and 1% methylprednisolone acetate formulations, respectively, and wound R was the control or untreated wound. In Group B, wounds C and L were treated with the 0.25% and 1% prednisolone acetate formulations, respectively and wound R was the control. The study drug (methylprednisolone or prednisolone) was applied to the treatment wounds twice daily (8 hours apart) beginning 1 h after the incision on day 1 and continuing through day 21. The wounds were far enough apart to avoid the spread of the treatment gel from the treated wound to the control wound. No additional physical barrier, such as a gauze bandage, was used.
Healing evaluation was made by measuring wound closure, which was assessed by the width of the wound. The width of each scar was measured with digital calipers at the widest point while subject was lying motionless, on its ventral side. Digital photographs were taken to record the healing process. The mean width of wound was recorded on days 1, 3, 5, 7, 9, 11, 13, 15, 17, 19 and 21.

[2] = system: linear subcutaneous-deep incision wounds in hairless mice (Skh:HR-1); experiment: Example 2 scar evaluation by Vancouver Scale at day 21 and gross evaluation; design: key: Vancouver Scale subscores (18-point total), mean of two observers
Method: as §1, §2, §3, §4, §5
(§6) Each mouse was kept in its cage during days 14-21. On day 21, each scar was assessed according to the Vancouver Scale (18 points) under magnification by two observers independently and the scores were averaged and recorded. Progressive re-epithelializaton of the wound surface from the wound edges continued until the wound surface was completely closed at a time between days 14 and 21.

[3] = system: linear subcutaneous-deep wounds in hairless mice (Skh:HR-1); experiment: Example 1 wound healing in hairless mice: healing evaluation by wound width; conditions: for Scar Width at widest margin: individual subject, 1% formulation topically twice daily; for Scar Width at widest margin / Scar Width at widest margin, Mean: L wound; for Scar Width at widest margin, Mean: mean of 12 subjects, 1% formulation twice daily
Method: as §1, with “for dermal anesthesia for” for “for”, “wounding.” for “wounding for dermal anesthesia.”
(§7) Two linear subcutaneous-deep wounds were made bilaterally with a 0.3 mm blade surgical knife on the dorsal side of each subject approximately 10 mm on each side of the spinal column. Because of the loose nature of the hairless mouse epidermis the wounds spread to as wide as 3 mm. Each mouse was housed separately.
(§8) The test formulation comprised the following ingredients (by weight percent): water (79%), ethanol (18%), prednisolone acetate (1%), and ammonium acryloyldimethyltaurate/VP copolymer (2%).
(§9) In each test subject, the right wound was assigned to a control (i.e., no treatment) and the left would was treated with a the 1% prednisolone acetate test formulation, applied twice daily (8 hours apart) beginning 1 h after the incision on day 1 and continuing through day 21. The wounds were about 20 mm apart to prevent the treatment gel from migrating from the treatment wound to the control wound.
Healing evaluation was made by measuring wound closure, which was assessed by the width of the wound. Evaluation was made on days 1, 3, 5, 10, and 14. The width of each scar was measured with digital calipers at the widest point while subject was lying motionless on its ventral side. Digital photographs were taken to record healing process.

[4] = system: linear subcutaneous-deep wounds in hairless mice (Skh:HR-1); experiment: Example 1 scar evaluation by Vancouver Scale at day 21; conditions: 1% formulation
Method: as §1, with “for dermal anesthesia for” for “for”, “wounding.” for “wounding for dermal anesthesia.”
as §7, §8, §9
as §6, with “re-epithelialization” for “re-epithelializaton”

[5] = Day 1, wound C, 0.25% formulation twice daily
[6] = Day 1, wound L, 1% formulation twice daily
[7] = Day 3, wound C, 0.25% formulation twice daily
[8] = Day 3, wound L, 1% formulation twice daily
[9] = Day 5, wound C, 0.25% formulation twice daily
[10] = Day 5, wound L, 1% formulation twice daily
[11] = Day 7, wound C, 0.25% formulation twice daily
[12] = Day 7, wound L, 1% formulation twice daily
[13] = Day 9, wound C, 0.25% formulation twice daily
[14] = Day 9, wound L, 1% formulation twice daily
[15] = Day 11, wound C, 0.25% formulation twice daily
[16] = Day 11, wound L, 1% formulation twice daily
[17] = Day 13, wound C, 0.25% formulation twice daily
[18] = Day 13, wound L, 1% formulation twice daily
[19] = Day 15, wound C, 0.25% formulation twice daily
[20] = Day 15, wound L, 1% formulation twice daily
[21] = Day 17, wound C, 0.25% formulation twice daily
[22] = Day 17, wound L, 1% formulation twice daily
[23] = Day 19, wound C, 0.25% formulation twice daily
[24] = Day 19, wound L, 1% formulation twice daily
[25] = Day 21, wound C, 0.25% formulation twice daily
[26] = Day 21, wound L, 1% formulation twice daily
[27] = Day 21, individual subject, L wound
[28] = Day 21, mean of 12 subjects, L wound

CC(=O)OCC(=O)[C@@]1(O)CC[C@H]2[C@@H]3C[C@H](C)C4=CC(=O)C=C[C@]4(C)[C@H]3[C@@H](O)C[C@@]21C [methylprednisolone acetate]
Mean Wound Width at Widest Margin [1, 5]: 3.1 ± 0.3 mm | Mean Wound Width at Widest Margin [1, 6]: 3.0 ± 0.2 mm | Mean Wound Width at Widest Margin [1, 7]: 2.5 ± 0.2 mm | Mean Wound Width at Widest Margin [1, 8]: 2.4 ± 0.3 mm | Mean Wound Width at Widest Margin [1, 9]: 2.0 ± 0.3 mm | Mean Wound Width at Widest Margin [1, 10]: 1.9 ± 0.4 mm | Mean Wound Width at Widest Margin [1, 11]: 1.5 ± 0.2 mm | Mean Wound Width at Widest Margin [1, 12]: 1.4 ± 0.2 mm | Mean Wound Width at Widest Margin [1, 13]: 1.0 ± 0.3 mm | Mean Wound Width at Widest Margin [1, 14]: 0.9 ± 0.3 mm | Mean Wound Width at Widest Margin [1, 15]: 0.5 ± 0.2 mm | Mean Wound Width at Widest Margin [1, 16]: 0.5 ± 0.1 mm | Mean Wound Width at Widest Margin [1, 17]: 0.1 ± 0.3 mm | Mean Wound Width at Widest Margin [1, 18]: 0.1 ± 0.2 mm | Mean Wound Width at Widest Margin [1, 19]: 0 mm | Mean Wound Width at Widest Margin [1, 20]: 0 mm | Mean Wound Width at Widest Margin [1, 21]: 0 mm | Mean Wound Width at Widest Margin [1, 22]: 0 mm | Mean Wound Width at Widest Margin [1, 23]: 0 mm | Mean Wound Width at Widest Margin [1, 24]: 0 mm | Mean Wound Width at Widest Margin [1, 25]: 0 mm | Mean Wound Width at Widest Margin [1, 26]: 0 mm | Mean Vancouver Scale Scar Scoring, Height ([2]; wound C, 0.25% formulation): 0 | Mean Vancouver Scale Scar Scoring, Pigmentation ([2]; wound C, 0.25% formulation): 1 | Mean Vancouver Scale Scar Scoring, Pliability ([2]; wound C, 0.25% formulation): 2.0 | Mean Vancouver Scale Scar Scoring, Vascularity ([2]; wound C, 0.25% formulation): 0 | Mean Vancouver Scale Scar Scoring, Height ([2]; wound L, 1% formulation): 0 | Mean Vancouver Scale Scar Scoring, Pigmentation ([2]; wound L, 1% formulation): 1 | Mean Vancouver Scale Scar Scoring, Pliability ([2]; wound L, 1% formulation): 1.5 | Mean Vancouver Scale Scar Scoring, Vascularity ([2]; wound L, 1% formulation): 0

CC(=O)OCC(=O)[C@@]1(O)CC[C@H]2[C@@H]3CCC4=CC(=O)C=C[C@]4(C)[C@H]3[C@@H](O)C[C@@]21C [prednisolone acetate]
Mean Wound Width at Widest Margin [1, 5]: 3.1 ± 0.3 mm | Mean Wound Width at Widest Margin [1, 6]: 3.0 ± 0.2 mm | Mean Wound Width at Widest Margin [1, 7]: 2.5 ± 0.2 mm | Mean Wound Width at Widest Margin [1, 8]: 2.4 ± 0.3 mm | Mean Wound Width at Widest Margin [1, 9]: 1.7 ± 0.2 mm | Mean Wound Width at Widest Margin [1, 10]: 1.8 ± 0.4 mm | Mean Wound Width at Widest Margin [1, 11]: 1.4 ± 0.2 mm | Mean Wound Width at Widest Margin [1, 12]: 1.5 ± 0.2 mm | Mean Wound Width at Widest Margin [1, 13]: 1.1 ± 0.2 mm | Mean Wound Width at Widest Margin [1, 14]: 1.0 ± 0.2 mm | Mean Wound Width at Widest Margin [1, 15]: 0.6 ± 0.2 mm | Mean Wound Width at Widest Margin [1, 16]: 0.6 ± 0.2 mm | Mean Wound Width at Widest Margin [1, 17]: 0.1 ± 0.2 mm | Mean Wound Width at Widest Margin [1, 18]: 0.2 ± 0.3 mm | Mean Wound Width at Widest Margin [1, 19]: 0 mm | Mean Wound Width at Widest Margin [1, 20]: 0 mm | Mean Wound Width at Widest Margin [1, 21]: 0 mm | Mean Wound Width at Widest Margin [1, 22]: 0 mm | Mean Wound Width at Widest Margin [1, 23]: 0 mm | Mean Wound Width at Widest Margin [1, 24]: 0 mm | Mean Wound Width at Widest Margin [1, 25]: 0 mm | Mean Wound Width at Widest Margin [1, 26]: 0 mm | redness and marginal line of treated wounds vs control ([3]; 1% formulation): less redness and a finer marginal line | scars healed with some degree of contracture ([3]; 1% formulation, number of scars out of 12): 8 out of the 12 | signs of infection ([3]; 1% formulation, treated and control wounds): Neither the control nor the treated wounds showed signs of infection | Scar Width at widest margin ([3]; Day 1): 3.0 mm (2×) and 2.6 mm and 2.9 mm (4×) and 2.7 mm (3×) and 2.8 mm (2×) | Scar Width at widest margin, Mean ([3]; Day 1): 2.8 mm | Scar Width at widest margin ([3]; Day 3): 1.9 mm (3×) and 1.8 mm (4×) and 1.4 mm and 1.5 mm and 1.7 mm (3×) | Scar Width at widest margin, Mean ([3]; Day 3): 1.8 mm | Scar Width at widest margin ([3]; Day 5): 1.7 mm (3×) and 1.6 mm (3×) and 1.1 mm and 1.3 mm and 1.4 mm (3×) and 1.5 mm | Scar Width at widest margin, Mean ([3]; Day 5): 1.5 mm | Scar Width at widest margin ([3]; Day 10): 0.6 mm (4×) and 0.2 mm and 0.4 mm (2×) and 0.5 mm (3×) and 0.3 mm and 0.7 mm | Scar Width at widest margin, Mean ([3]; Day 10): 0.5 mm | Scar Width at widest margin ([3]; Day 14): 0.2 mm (2×) and 0.0 mm (10×) | Scar Width at widest margin, Mean ([3]; Day 14): 0 mm and 0.0 mm | mean difference in wound width, treated vs control ([3]; day 3, 1% formulation): 0.4 mm | mean difference in wound width, treated vs control ([3]; day 5, 1% formulation): 0.4 mm | mean difference in wound width, treated vs control ([3]; day 7, 1% formulation): 0.5 mm | mean difference in wound width, treated vs control ([3]; day 10, 1% formulation): 0.5 mm | mean difference in wound width, treated vs control ([3]; day 14, 1% formulation): 0.7 mm | retarding of healing phases ([3]; evaluation and healing period, 1% formulation): No apparent retarding of any phase of healing | contracture of healed epidermal layer vs control ([3]; evident by day 5, 1% formulation): less contracture | gross appearance of treated wounds (crusting, infiltrates, exudates) ([3]; first 14 days, 1% formulation): clear of crusting, infiltrates, and exudates | healing vs control group by wound width ([3]; over a 14-day period, 1% formulation): faster than the control group | Mean Vancouver Scale Scar Scoring, Height ([2]; wound C, 0.25% formulation): 0 | Mean Vancouver Scale Scar Scoring, Pigmentation ([2]; wound C, 0.25% formulation): 1 | Mean Vancouver Scale Scar Scoring, Pliability ([2]; wound C, 0.25% formulation): 2.5 | Mean Vancouver Scale Scar Scoring, Vascularity ([2]; wound C, 0.25% formulation): 0 | Mean Vancouver Scale Scar Scoring, Height ([2]; wound L, 1% formulation): 0 | Mean Vancouver Scale Scar Scoring, Pigmentation ([2]; wound L, 1% formulation): 1 | Mean Vancouver Scale Scar Scoring, Pliability ([2]; wound L, 1% formulation): 1.0 | Mean Vancouver Scale Scar Scoring, Vascularity ([2]; wound L, 1% formulation): 0 | Averaged Vancouver Scale Scar Scoring, Height [4, 27]: 0 | Averaged Vancouver Scale Scar Scoring, Pigmentation [4, 27]: 1.5 and 1 (11×) | Averaged Vancouver Scale Scar Scoring, Pliability [4, 27]: 1 (10×) and 1.5 (2×) | Averaged Vancouver Scale Scar Scoring, Vascularity [4, 27]: 1 (2×) and 0 (10×) | Averaged Vancouver Scale Scar Scoring, Height, Mean [4, 28]: 0 | Averaged Vancouver Scale Scar Scoring, Pigmentation, Mean [4, 28]: 1.1 | Averaged Vancouver Scale Scar Scoring, Pliability, Mean [4, 28]: 1.1 | Averaged Vancouver Scale Scar Scoring, Vascularity, Mean [4, 28]: 0.16 | global assessment of scars by Vancouver Scale, treated vs control ([4]; day 21): significant difference in pliability, pigmentation and vascularity | pigmentation vs control ([4]; day 21): marginally better | vascularity in treated areas ([4]; day 21): returned to virtually normal
